# Values of other authors in patent publication US20250064759A1, “CONTAINER COMPRISING A LISDEX[…] SOLUTION” (LABOMED PHARMACEUTICAL COMPANY S.A., priority 2021, published 2025).
# Conditions: in vivo
smiles,measurement,value
"C[C@@H](Cc1ccccc1)NC(=O)[C@@H](N)CCCCN [Lisdexamfetamine, L-lysine-d-amfetamine]",period over which dexamfetamine is delivered,about 8 hours
